Test results: ChEMBL document CHEMBL1255426, “Single-dose pharmacokinetics of famciclovir in infants and population pharmacokinetic analysis in infants and children” (Antimicrob Agents Chemother, 2010)

Assays:
[1] = system: Homo sapiens; assay: Cmax in 1 to <3 months old infant assessed as penciclovir at 6.6 +/- 1.4 mg/kg, po single dose; format: ADME, organism-based; set-up: route oral; conditions: in vivo
[2] = system: Homo sapiens; assay: Toxicity in 1 to 12 months old infant assessed as mild adverse events at 13.5 mg/kg, po single dose within 8 days; format: organism-based; set-up: dose 13.5 mg/kg, route oral; conditions: in vivo, 192 h
[3] = system: Homo sapiens; assay: Tmax in 2 to <6 months old infant assessed as penciclovir at 6.6 +/- 1.4 mg/kg, po single dose; format: ADME, organism-based; set-up: route oral; conditions: in vivo
[4] = system: Homo sapiens; assay: AUC (0 to 6 hrs) in 6 to 12 months old infant assessed as penciclovir at 6.6 +/- 1.4 mg/kg, po single dose; format: ADME, organism-based, Plasma; set-up: time < 6 hr, route oral; conditions: in vivo
[5] = system: Homo sapiens; assay: Toxicity in 1 to 12 months old infant assessed as moderate adverse events at 13.5 mg/kg, po single dose within 8 days; format: organism-based; set-up: dose 13.5 mg/kg, route oral; conditions: in vivo, 192 h
[6] = system: Homo sapiens; assay: AUC (0 to 6 hrs) in 1 to <3 months old infant assessed as penciclovir at 6.6 +/- 1.4 mg/kg, po single dose; format: ADME, organism-based, Plasma; set-up: time < 6 hr, route oral; conditions: in vivo
[7] = system: Homo sapiens; assay: Cmax in 2 to <6 months old infant assessed as penciclovir at 6.6 +/- 1.4 mg/kg, po single dose; format: ADME, organism-based; set-up: route oral; conditions: in vivo
[8] = system: Homo sapiens; assay: Tmax in 1 to <3 months old infant assessed as penciclovir at 6.6 +/- 1.4 mg/kg, po single dose; format: ADME, organism-based; set-up: route oral; conditions: in vivo
[9] = system: Homo sapiens; assay: Toxicity in 1 to 12 months old infant assessed as adverse events at 13.5 mg/kg, po single dose within 8 days; format: organism-based; set-up: dose 13.5 mg/kg, route oral; conditions: in vivo, 192 h
[10] = system: Homo sapiens; assay: AUC (0 to 6 hrs) in 2 to <6 months old infant assessed as penciclovir at 6.6 +/- 1.4 mg/kg, po single dose; format: ADME, organism-based, Plasma; set-up: time < 6 hr, route oral; conditions: in vivo
[11] = system: Homo sapiens; assay: Tmax in 6 to 12 months old infant assessed as penciclovir at 6.6 +/- 1.4 mg/kg, po single dose; format: ADME, organism-based; set-up: route oral; conditions: in vivo
[12] = system: Homo sapiens; assay: Toxicity in 1 to 12 months old infant assessed as severe adverse events at 13.5 mg/kg, po single dose within 8 days; format: organism-based; set-up: dose 13.5 mg/kg, route oral; conditions: in vivo, 192 h
[13] = system: Homo sapiens; assay: Cmax in 6 to 12 months old infant assessed as penciclovir at 6.6 +/- 1.4 mg/kg, po single dose; format: ADME, organism-based; set-up: route oral; conditions: in vivo

Cmax [1]: 690 ng/mL
Tmax [3]: 4 h
AUC [4]: 8770 ng·h/mL
AUC [6]: 2110 ng·h/mL
Cmax [7]: 740 ng/mL
Tmax [8]: 1 h
AUC [10]: 3160 ng·h/mL
Tmax [11]: 1.02 h
Cmax [13]: 3240 ng/mL
SMILES: CC(=O)OCC(CCn1cnc2cnc(N)nc21)COC(C)=O [FAMCICLOVIR]
Activity [2]: 16.7%
Activity [5]: 22.2%
Activity [9]: 44.4%
Activity [12]: 5.6%
